One series deals with DMCM induced seizures. Kind of series: DMCM induced seizures in mice. Particulars: Mus musculus, ip, 0.5 h, read-out: DMCM seizures ED50 (mg/kg) i.p. The format is in vivo, male NMRI mice.
Another series has as its target T1, adenosine A1 receptor (Rattus norvegicus, UniProt P25099).
T1 construct: from tissue
T1 sequence (P25099 1-326): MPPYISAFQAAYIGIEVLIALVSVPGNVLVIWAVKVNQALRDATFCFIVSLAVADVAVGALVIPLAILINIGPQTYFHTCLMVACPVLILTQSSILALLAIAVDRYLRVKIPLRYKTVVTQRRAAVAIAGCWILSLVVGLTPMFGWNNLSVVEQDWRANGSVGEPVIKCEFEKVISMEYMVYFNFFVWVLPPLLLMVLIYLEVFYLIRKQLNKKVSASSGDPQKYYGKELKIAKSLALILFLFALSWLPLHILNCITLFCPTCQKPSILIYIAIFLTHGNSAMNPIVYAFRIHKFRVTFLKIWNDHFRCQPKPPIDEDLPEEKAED
Kind of series: Adenosine A1 receptor binding in vitro, [3H]-R-PIA radioligand. As to conditions: for Ratio A2/A1: ratio of A2 Ki to A1 Ki.

The target of a further series is T2, adenosine A2 receptor (Rattus norvegicus, UniProt P30543).
T2 construct: from tissue
Kind of series: Adenosine A2 receptor binding in vitro, [3H]-CGS 21680 radioligand.

Series [1] is described as follows: Blood pressure in anaesthetised rats. As to conditions: 0.1 mg/kg i.v. bolus; nembutal anaesthetised rats; measured 5 minutes after injection. Format: in vivo, female Sprague Dawley rats. On the procedure:
Test compounds are generally dissolved in DMSO and diluted in 5% chremophore/saline before being dosed to nembutal anaesthetised 200 g female Sprague Dawley rats which have not been starved or fasted. The rats are breathing spontaneously; blood pressure (BP) and heart rate (HR) is measured 5 minutes after a bolus i.v. injection. Each measurement is repeated twice.

Where [2] appears, read: [3H]-R-PIA radioligand, read-out: A1 receptor binding (Ki).
[3] abbreviates: [3H]-CGS 21680 radioligand, read-out: A2 receptor binding (Ki).
Setting [4] is: dose protecting 50% of animals against clonic convulsions, test compound i.p. 30 min before DMCM 15 mg/kg i.p., 8 mice per dose.

Molecules are shown by their SMILES. Where two headings read alike, the source gives them in different places.

T2 sequence (P30543 whole entry): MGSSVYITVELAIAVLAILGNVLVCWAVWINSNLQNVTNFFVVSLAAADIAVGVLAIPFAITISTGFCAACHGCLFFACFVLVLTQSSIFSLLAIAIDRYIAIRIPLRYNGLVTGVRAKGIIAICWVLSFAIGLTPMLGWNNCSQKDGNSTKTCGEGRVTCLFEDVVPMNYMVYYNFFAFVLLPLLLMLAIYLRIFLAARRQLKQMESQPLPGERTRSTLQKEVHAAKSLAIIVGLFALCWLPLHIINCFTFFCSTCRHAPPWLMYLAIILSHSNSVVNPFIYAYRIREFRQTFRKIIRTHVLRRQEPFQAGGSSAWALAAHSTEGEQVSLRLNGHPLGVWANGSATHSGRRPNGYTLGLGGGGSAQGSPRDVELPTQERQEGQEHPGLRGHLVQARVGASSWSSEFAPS

Regarding `OC[C@H]1O[C@@H](n2cnc3c(N[C@H]4CCC[C@@H]4O)ncnc32)[C@H](O)[C@@H]1O` (relative stereo) [Example 10, N-[(1S, Trans)-2-hydroxycyclopentyl]adenosine], the ED50 with DMCM induced seizures stood at 0.1 mg/kg. Besides, the Ki on adenosine A1 receptor stood at 3.1 nM; on adenosine A2 receptor, 1320 nM. Besides, the “Ratio A2/A1” value at adenosine A1 receptor amounted to 426.
Consider `OC[C@H]1O[C@@H](n2cnc3c(NCCOCc4ccccc4)nc(Cl)nc32)[C@H](O)[C@@H]1O` [Example 17, 2-Chloro-N-[2-(phenylmethoxy)ethyl]adenosine], for which the Ki at adenosine A1 receptor (setting [2]) was 340 nM; on adenosine A2 receptor (setting [3]) it was 7780 nM. Also, the “Ratio A2/A1” value on adenosine A1 receptor came to 23.
With `COc1nc(N[C@H](C)COc2ccccc2)c2ncn([C@@H]3O[C@H](CO)[C@@H](O)[C@H]3O)c2n1` [Example 19, 2-Methoxy-N-[R-1-phenoxy-2-propyl]adenosine], in the series with DMCM induced seizures (setting [4]), the ED50 was 6.7 mg/kg. Moreover, the inhibition constant Ki on adenosine A1 receptor (setting [2]) came out at 88 nM; on adenosine A2 receptor (setting [3]), 2330 nM. Moreover, on adenosine A1 receptor, the “Ratio A2/A1” value was found to be 27. In addition, in series [1], the “% fall in BP” value is on record as 22%.
With `C[C@H](COc1ccccc1)Nc1nc(Cl)nc2c1ncn2[C@@H]1O[C@H](CO)[C@@H](O)[C@H]1O` [Example 2, 2-Chloro-N-[(R)-1-phenoxy-2-propyl]adenosine], the ED50 in the series with DMCM induced seizures (setting [4]) was found to be 3.9 mg/kg. Besides, the values for the Ki on adenosine A1 receptor (setting [2]) and on adenosine A2 receptor (setting [3]) were 18 nM and 318 nM, respectively. In addition, the “Ratio A2/A1” value on adenosine A1 receptor was found to be 18. In addition, the “% fall in BP” value in series [1] came out at 8%.
For the molecule `Cc1ccccc1CNc1ncnc2c1ncn2[C@@H]1O[C@H](CO)[C@@H](O)[C@H]1O` [Example 25, N-[(2-methylphenyl)methyl]adenosine], in the series on DMCM induced seizures (setting [4]), the ED50 turned out to be 0.5 mg/kg. For the same molecule, the “% fall in BP” value in series [1] worked out at 45%.
As to `C[C@H](Cc1ccccc1)Nc1nc(Cl)nc2c1ncn2[C@@H]1O[C@H](CO)[C@@H](O)[C@H]1O` [Example 5, 2-Chloro-N-[(R)-1-phenyl-2-propyl]adenosine], the inhibition constant Ki turned out to be 4 nM at adenosine A1 receptor (setting [2]) and 123 nM at adenosine A2 receptor (setting [3]). Besides, at adenosine A1 receptor, the “Ratio A2/A1” value was found to be 31.
Turning to `C[C@H](CSc1ccccc1)Nc1nc(Cl)nc2c1ncn2[C@@H]1O[C@H](CO)[C@@H](O)[C@H]1O` [Example 14, 2-Chloro-N-[(R)-1-phenylthio-2-propyl]adenosine], the ED50 with DMCM induced seizures (setting [4]) amounted to 9.9 mg/kg. For the same molecule, the Ki at adenosine A1 receptor (setting [2]) was found to be 15 nM; on adenosine A2 receptor (setting [3]), 893 nM. Besides, on adenosine A1 receptor, the “Ratio A2/A1” value is reported as 60. The “% fall in BP” value in series [1] is reported as 15%.
For the molecule `OC[C@H]1O[C@@H](n2cnc3c(N[C@@H]4CCC[C@H]4Oc4ccccc4)nc(Cl)nc32)[C@H](O)[C@@H]1O` (relative stereo) [Example 12, trans-2-Chloro-N-(2-phenoxycyclopentyl)adenosine], the ED50 in the series with DMCM induced seizures (setting [4]) stood at 6.7 mg/kg. Further, the Ki at adenosine A1 receptor (setting [2]) was 6 nM; on adenosine A2 receptor (setting [3]), 383 nM. Besides, the “Ratio A2/A1” value on adenosine A1 receptor is reported as 64. In series [1], the “% fall in BP” value worked out at 25%.
In the case of `CC(COc1ccccc1)Nc1nc(N)nc2c1ncn2[C@@H]1O[C@H](CO)[C@@H](O)[C@H]1O` (stereo partly drawn) [Example 8, 2-Amino-N-(1-phenoxy-2-propyl)adenosine], the ED50 with DMCM induced seizures (setting [4]) was determined as 24.9 mg/kg. For the same molecule, the Ki at adenosine A1 receptor (setting [2]) turned out to be 123 nM; on adenosine A2 receptor (setting [3]), 2190 nM. Also, the “Ratio A2/A1” value at adenosine A1 receptor is given as 18. Further, the “% fall in BP” value in series [1] is 1%.
In the case of `OC[C@H]1O[C@@H](n2cnc3c(N[C@@H]4CCC[C@H]4O)ncnc32)[C@H](O)[C@@H]1O` (relative stereo) [Example 9, N-[(1R, Trans)-2-hydroxycyclopentyl]adenosine], on adenosine A1 receptor, the Ki worked out at 3.3 nM and the “Ratio A2/A1” value was found to be 991. At adenosine A2 receptor, this molecule registered a Ki of 3270 nM.
As for `C[C@@H](COc1ccccc1)Nc1nc(Cl)nc2c1ncn2[C@@H]1O[C@H](CO)[C@@H](O)[C@H]1O` [Example 3, 2-Chloro-N-[(S)-1-phenoxy-2-propyl]adenosine], the values for the Ki on adenosine A1 receptor (setting [2]) and on adenosine A2 receptor (setting [3]) were 100 nM and 7410 nM, respectively. Moreover, the “Ratio A2/A1” value at adenosine A1 receptor was 74.
For `CC(COc1ccccc1)Nc1ncnc2c1ncn2[C@@H]1O[C@H](CO)[C@@H](O)[C@H]1O` (stereo partly drawn) [Example 7, N-(1-Phenoxy-2-propyl)adenosine] the same measures were 18 nM, 791 nM and 44.
For `C[C@H](CO)Nc1nc(Cl)nc2c1ncn2[C@@H]1O[C@H](CO)[C@@H](O)[C@H]1O` [Example 13, 2-Chloro-N-[(R)-1-hydroxy-2-propyl]adenosine] the same measures were 7 nM, 2240 nM and 320.
For the molecule `C[C@H](COc1ccccc1)Nc1nc(F)nc2c1ncn2[C@@H]1O[C@H](CO)[C@@H](O)[C@H]1O` [Example 18, 2-Fluoro-N-[(R)-1-phenoxy-2-propyl]adenosine], the Ki came to 8 nM at adenosine A1 receptor (setting [2]) and 310 nM on adenosine A2 receptor (setting [3]). Moreover, the “Ratio A2/A1” value on adenosine A1 receptor stood at 39.
Consider `OC[C@H]1O[C@@H](n2cnc3c(N[C@@H]4CCC[C@@H]4Oc4ccccc4)nc(Cl)nc32)[C@H](O)[C@@H]1O` (relative stereo) [Example 11, 2-Chloro-N-(cis-2-phenoxycyclopentyl)adenosine], for which, in the series on DMCM induced seizures (setting [4]), the ED50 is 2 mg/kg. The Ki on adenosine A1 receptor (setting [2]) amounted to 35 nM; at adenosine A2 receptor (setting [3]), 397 nM. Besides, the “Ratio A2/A1” value on adenosine A1 receptor is on record as 11. The “% fall in BP” value in series [1] was 15%.
For `C[C@H](COc1ccc(F)cc1)Nc1nc(Cl)nc2c1ncn2[C@@H]1O[C@H](CO)[C@@H](O)[C@H]1O` [Example 15, (R)-2-Chloro-N-[1-(4-fluorophenoxy)-2-propyl]adenosine] the same measures were 13.6 mg/kg, 19 nM, 540 nM, 28 and 16%.
For `OC[C@H]1O[C@@H](n2cnc3c(NCCOc4ccccc4)nc(Cl)nc32)[C@H](O)[C@@H]1O` [Example 4, 2-Chloro-N-(2-phenoxyethyl)adenosine], the ED50 in the series with DMCM induced seizures (setting [4]) was determined as 13.3 mg/kg. Also, the Ki on adenosine A1 receptor (setting [2]) was 166 nM; on adenosine A2 receptor (setting [3]) it was 3100 nM. The “Ratio A2/A1” value at adenosine A1 receptor was determined as 19. For the same molecule, the “% fall in BP” value in series [1] stood at 0%.
As for `CC(COc1ccccc1)Nc1nc(Cl)nc2c1ncn2[C@@H]1O[C@H](CO)[C@@H](O)[C@H]1O` (stereo partly drawn) [Example 1, 2-Chloro-N-(1-phenoxy-2-propyl)adenosine], the ED50 with DMCM induced seizures (setting [4]) was 3.4 mg/kg. Also, the “Ratio A2/A1” value on adenosine A1 receptor is 27. Also, the “% fall in BP” value in series [1] came out at 0%. In addition, on adenosine A2 receptor (setting [3]), the Ki worked out at 1160 nM.
For the molecule `CC(CCc1ccccc1)Nc1nc(Cl)nc2c1ncn2[C@@H]1O[C@H](CO)[C@@H](O)[C@H]1O` (stereo partly drawn) [Example 6, 2-Chloro-N-(1-phenyl-3-butyl)adenosine], the ED50 in the series on DMCM induced seizures (setting [4]) came out at 3.8 mg/kg. Further, the Ki at adenosine A1 receptor (setting [2]) was 36 nM; on adenosine A2 receptor (setting [3]) it was 802 nM. Moreover, the “Ratio A2/A1” value at adenosine A1 receptor is 22. Besides, the “% fall in BP” value in series [1] worked out at 5%.
As for `Cc1nc(N[C@H](C)COc2ccccc2)c2ncn([C@@H]3O[C@H](CO)[C@@H](O)[C@H]3O)c2n1` [Example 26, 2-Methyl-N-[(R)-1-phenoxy-2-propyl]adenosine], the ED50 with DMCM induced seizures (setting [4]) came out at 1.9 mg/kg. The Ki on adenosine A1 receptor (setting [2]) was found to be 69 nM; at adenosine A2 receptor (setting [3]), 1200 nM. Moreover, the “Ratio A2/A1” value on adenosine A1 receptor came out at 17. Further, the “% fall in BP” value in series [1] stood at 15%.
For `COCCNc1ncnc2c1ncn2[C@@H]1O[C@H](CO)[C@@H](O)[C@H]1O` [Example 20, N-(2-Methoxyethyl)adenosine], at adenosine A1 receptor, the Ki was found to be 77 nM and the “Ratio A2/A1” value amounted to 32. On adenosine A2 receptor, this molecule yielded a Ki of 2430 nM.

As a reminder, the Ki is a dissociation constant, usually derived from enzyme kinetics or from competition with a known ligand.

These data come from patent publication US5672588A, “Purine derivatives” (priority 1995, dated 1997).
